Columns and labels:
Format in all cases: cell-based, human
p21 = assay: RT-PCR p21 mRNA in U−2 OS cells; conditions: 24 h
Procedure: (§1) Total RNA within cells was extracted by the RNAeasy™ Animal Long RNA Isolation Kit with Spin Column (Shanghai, Beyotime); the concentrations and OD260/OD280 and OD230/OD260 values were measured by NanoDrop. Five micrograms of RNA was used for reverse transcription; each sample was diluted to 16 μL, and 4 μL of synthesized premix solution (5×) was added, then the mixtures were placed in a 42 °C water bath for 10 min, then an 80 °C water bath for 10 min to deactivate reverse transcriptase. After reverse transcription, each sample was diluted to 140 μL. PCR amplification was carried out by the ABI700 real-time PCR system, and the amplification reaction was detected with a SYBR probe. After PCR, actin and GAPDH were used as internal references, and the relative standard curve method (2^−ΔΔcT) determined the relative expression of mRNA.

snail = assay: RT-PCR snail mRNA in U−2 OS cells; conditions: 24 h
Procedure: as §1

HeLa cells = assay: Cell adhesion against trypsin digestion, HeLa cells; conditions: DS-1 10.0, 15.0, 20.0 μM for 24 h
Excerpt: Dihydrotanshinone I enhances cell adhesion and inhibits cell migration in osteosarcoma U-2 OS cell through CD44
Lanyan Fan1, 2, Chen Peng2, Xiaoping Zhu1, 2, Yawen Liang2, Ti anyi Xu2, Peng Xu1 and Shihua Wu1, 2* 1 Joint Research Centre for Engineering Biology, Zhejiang University-University of Edinburgh Institute, Zhejiang University, Haining 314400, China
2 Research Center of Siyuan Natural Pharmacy and Biotoxicology, College of Life Sciences, Zhejiang University, Hangzhou, Zhejiang Province 310058, China
* Correspondence: Drwushihua@zju.edu.cn, Shihuawu@intl.zju.edu.cn; Tel.: +86-13968131541 Legends for Supplementary figures
Figure S1. The chemical structures of major tanshinones isolated from Salvia miltiorrhiza rhizome.
Figure S2. The effects of DS-1 on HeLa cell adhesion on cell culture plates against trypsin digestion. (A) Hela cells were seeded at 80000 per well in 6-well plates for 12 h, then treated with 0, 10.0, 15.0, 20.0 μM DS-1 for 24 h.
After that, cells were washed by PBS solution and digested by 400 μL 0.25% trypsin. During the digestion, cellular morphology was recorded by inverted microscope with camera every 30 seconds. The digestion time […]
Figure S3. […]
cellular morphology was recorded by inverted microscope every 30 seconds. […]
Figure S4. […] The relative expression of CD44 was detected by Western Blot and […]

pAKT = assay: Western blot pAKT; conditions: 24 h
Procedure: Sample preparation: U−2 OS cells seeded in 10 cm Petri dishes were collected and washed with ice-cold PBS and RIPA lysis buffer with PMAF; phosphatase inhibitor was added, and the tubes were placed on ice for 30 min and vortexed for 30 s at intervals of 10 min. The samples were centrifuged at 12,000 g at 4 °C for 15 min, and the supernatants were collected in new centrifuge tubes. The protein samples were placed on ice, and the concentration of each protein sample was measured by the BCA kit (Thermo). The protein concentration was adjusted to the same by milli Q ultrapure water.
Loading and running the gel: Equal amounts of protein were loaded into the wells of the 10% SDS-PAGE gel, along with molecular weight markers, and 15 μg of total protein from the cell lysate was loaded. We then ran the gel for 45 min at 200 V.
Transferring the protein: We prepared the transfer stack as follows: negative plate, sponge, filter paper, gel, PVDF membrane, filter paper, sponge, and positive plate. The transfer was for 90 min at 200 mA.
Antibody staining: We blocked the membrane for 1 h at room temperature using 5% blocking solution, then incubated the membrane with appropriate dilutions of the primary antibody in the blocking solution overnight at 4 °C. We then washed the membrane with TBST reagent 3 times, 5 min each. Then, we incubated the membrane with the recommended dilution of labeled secondary antibody in blocking solution at room temperature for 1 h and washed the membrane with TBST reagent 3 times, 5 min each. For signal development, super-enhanced chemiluminescence detection reagents were added to the surface of the membrane for 1 min, then excess reagent was removed, and the membrane was covered in transparent plastic wrap. Images were acquired using darkroom development techniques for chemiluminescence and analyzed by Image J.

IL6 = assay: RT-PCR IL6 mRNA in U−2 OS cells; conditions: 24 h
Procedure: as §1

FOXO1 = FOXO1 by immunofluorescence and immunoblotting; conditions: DS−1 3.125, 6.25, and 12.5 μM
Procedure: Figure 3 DS−1 inhibited the expression of transcription factor FOXO1 in U−2 OS cells. (A) U−2 OS cells were treated with DS−1 at 0, 3.125, 6.25, and 12.5 μM, and the changes in FOXO1 were analyzed by immunofluorescent staining, followed by confocal microscopy imaging. (B) U−2OS cells were treated with DS−1 at 0, 3.125, 6.25, and 12.5 μM, and FOXO1 and pFOXO1 were analyzed by Western blot; the changes were presented in histograms (C,D). (E) U−2 OS cells were treated with DS−1 at 6.25 μM for 0, 12, 24, and 48 h, then FOXO1 was analyzed by Western blot, and the changes are presented in the histogram (F). (G) The pFOXO1/FOXO1 value is shown in the histogram. […]
Sample preparation: U−2 OS cells seeded in 10 cm Petri dishes were collected and washed with ice-cold PBS and RIPA lysis buffer with PMAF; phosphatase inhibitor was added, and the tubes were placed on ice for 30 min and vortexed for 30 s at intervals of 10 min. […] The protein samples were placed on ice, and the concentration of each protein sample was measured by the BCA kit (Thermo). […]
Antibody staining: We blocked the membrane for 1 h at room temperature using 5% blocking solution, then incubated the membrane with appropriate dilutions of the primary antibody in the blocking solution overnight at 4 °C. […] Images were acquired using darkroom development techniques for chemiluminescence and analyzed by Image J.

Cc1cccc2c3c(ccc12)C1=C(C(=O)C3=O)[C@@H](C)CO1 [DS−1, 15,16-Dihydrotanshinone I]
p21 mRNA, fold of the control group (p21; DS−1 2.5 µM): 10.1 ± 3.9 fold
p21 mRNA, fold of the control group (p21; DS−1 5.0 µM): 56.8 ± 8.2 fold
p21 mRNA, fold of the control group (p21; DS−1 7.5 µM): 90.2 ± 6.7 fold
snail mRNA, fold of the control group (snail; DS−1 5.0 µM): 0.46 ± 0.05 fold
snail mRNA, fold of the control group (snail; DS−1 7.5 µM): 0.39 ± 0.03 fold
cell adhesion against trypsin digestion on cell culture plates (HeLa cells): not significant
pAKT, fold of the control group (pAKT; DS−1 5.0 µM): 2.06 ± 0.08 fold
pAKT, fold of the control group (pAKT; DS−1 7.5 µM): 2.10 ± 0.15 fold
pAKT/AKT value (pAKT; with the concentration of DS−1 (2.5, 5.0, 7.5 µM)): increased
IL6 mRNA, fold (IL6; DS−1 2.5 µM): 0.81 ± 0.09 fold
IL6 mRNA, fold (IL6; DS−1 5.0 µM): 0.51 ± 0.07 fold
IL6 mRNA, fold (IL6; DS−1 7.5 µM): 0.42 ± 0.12 fold
expression of FOXO1 (FOXO1): reduced

From article PMC9231138, “Dihydrotanshinone I Enhances Cell Adhesion and Inhibits Cell Migration in Osteosarcoma U−2 OS Cells through CD44 and Chemokine Signaling” (Molecules, 2022)
